Key:
[1] = test system: platelet aggregation by ADP stimulation; conditions: clopidogrel 10 mg/kg oral, ketoconazole 50 mg/kg oral 30 min before, blood 2 hours after clopidogrel
Description: Fasted rats (7 weeks old, female, SD rats) were used as experimental animals.

[2] = test system: gastric acid secretion; assay: Correlation between enzyme activity of CYP2C19 and CYP3A4 and effect of omeprazole, 13C-CaCO3 expiration test; type: in vivo, rats; conditions: ketoconazole 50 mg/kg oral 30 min before omeprazole 3 mg/kg i.v.; 13C-CaCO3 100 μmol/kg oral 2 hours after omeprazole
Method: Fasted rats (7 weeks old, female, SD rats) were used as experimental animals. The rats were divided into an omeprazole administration group (n=3), a ketoconazole pre-treatment group (n=3), and a control group (n=3).
Expired air was then collected. […] Expired air was then collected.
The above expired air was used as test samples, and Δ^13C (‰) was measured with a mass spectrometer for expired air analysis (ABCA: manufactured by SerCon) from the concentration of ^13CO2 excreted in the expired air.

Row | Structure (SMILES) | platelet aggregation inhibitory action of clopidogrel under ketoconazole pre-treatment [1] | Δ13C (‰) in the expired air after 13C-CaCO3, effect of ketoconazole pre-treatment before omeprazole [2]
1 | COC(=O)[C@H](c1ccccc1Cl)N1CCc2sccc2C1 [clopidogrel] | reduced | –
2 | CC(=O)N1CCN(c2ccc(OCC3COC(Cn4ccnc4)(c4ccc(Cl)cc4Cl)O3)cc2)CC1 (centres unmarked) [ketoconazole] | – | decreased
